{"source": "PubChem BioAssay (NCI)", "test_in_all_cases": "NCI anticancer screen, dose series, 384-well format", "key": {"BT-549 breast": {"system": "BT-549 breast"}, "T-47D breast": {"system": "T-47D breast"}, "UO-31 renal": {"system": "UO-31 renal"}, "DU-145 prostate": {"system": "DU-145 prostate"}, "HT29 colon": {"system": "HT29 colon"}, "SK-MEL-2 melanoma": {"system": "SK-MEL-2 melanoma"}, "OVCAR-5 ovarian": {"system": "OVCAR-5 ovarian"}, "ACHN renal": {"system": "ACHN renal"}, "NCI-H322M lung": {"system": "NCI-H322M lung"}, "SF-539 CNS": {"system": "SF-539 CNS"}, "UACC-257 melanoma": {"system": "UACC-257 melanoma"}, "MDA-MB-468 breast": {"system": "MDA-MB-468 breast"}, "HCC-2998 colon": {"system": "HCC-2998 colon"}, "SW-620 colon": {"system": "SW-620 colon"}, "SNB-19 CNS": {"system": "SNB-19 CNS"}, "HOP-92 NSCLC": {"system": "HOP-92 NSCLC"}, "NCI-H460 NSCLC": {"system": "NCI-H460 NSCLC"}, "EKVX NSCLC": {"system": "EKVX NSCLC"}, "MCF7 breast": {"system": "MCF7 breast"}, "COLO 205 colon": {"system": "COLO 205 colon"}, "RPMI-8226 leukemia": {"system": "RPMI-8226 leukemia"}, "NCI/ADR-RES ovarian": {"system": "NCI/ADR-RES ovarian"}, "MDA-MB-231 breast": {"system": "MDA-MB-231 breast"}, "SF-295 CNS": {"system": "SF-295 CNS"}, "A498 renal": {"system": "A498 renal"}, "M14 melanoma": {"system": "M14 melanoma"}, "SNB-75 CNS": {"system": "SNB-75 CNS"}, "PC-3 prostate": {"system": "PC-3 prostate"}, "HOP-62 NSCLC": {"system": "HOP-62 NSCLC"}, "CAKI-1 renal": {"system": "CAKI-1 renal"}}, "note": "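GI50 = concentration required for 50% inhibition of growth. TGI denotes the concentration required for complete inhibition of growth.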", "data": [{"smiles": "C[C@@H]1C[C@H](N)C[C@H](c2ccncc2NC(=O)c2ccc(F)c(-c3c(F)cccc3F)n2)C1", "values": [{"measurement": "GI50", "setting": "BT-549 breast", "result": 5.53, "unit": "µM"}, {"measurement": "TGI", "setting": "BT-549 breast", "result": 19.2, "unit": "µM"}, {"measurement": "GI50", "setting": "T-47D breast", "result": 4.76, "unit": "µM"}, {"measurement": "TGI", "setting": "T-47D breast", "result": 17.7, "unit": "µM"}, {"measurement": "GI50", "setting": "UO-31 renal", "result": 13.5, "unit": "µM"}, {"measurement": "TGI", "setting": "UO-31 renal", "result": 26.4, "unit": "µM"}, {"measurement": "GI50", "setting": "DU-145 prostate", "result": 15.7, "unit": "µM"}, {"measurement": "TGI", "setting": "DU-145 prostate", "result": 29.3, "unit": "µM"}, {"measurement": "GI50", "setting": "HT29 colon", "result": 5.3, "unit": "µM"}, {"measurement": "TGI", "setting": "HT29 colon", "result": 14.9, "unit": "µM"}, {"measurement": "GI50", "setting": "SK-MEL-2 melanoma", "result": 13.4, "unit": "µM"}, {"measurement": "TGI", "setting": "SK-MEL-2 melanoma", "result": 26.2, "unit": "µM"}, {"measurement": "GI50", "setting": "OVCAR-5 ovarian", "result": 11.7, "unit": "µM"}, {"measurement": "TGI", "setting": "OVCAR-5 ovarian", "result": 24, "unit": "µM"}, {"measurement": "GI50", "setting": "ACHN renal", "result": 13.8, "unit": "µM"}, {"measurement": "TGI", "setting": "ACHN renal", "result": 26.9, "unit": "µM"}, {"measurement": "GI50", "setting": "NCI-H322M lung", "result": 14.4, "unit": "µM"}, {"measurement": "TGI", "setting": "NCI-H322M lung", "result": 27.5, "unit": "µM"}, {"measurement": "GI50", "setting": "SF-539 CNS", "result": 7.93, "unit": "µM"}, {"measurement": "TGI", "setting": "SF-539 CNS", "result": 20.8, "unit": "µM"}, {"measurement": "GI50", "setting": "UACC-257 melanoma", "result": 1.65, "unit": "µM"}, {"measurement": "TGI", "setting": "UACC-257 melanoma", "result": 3.03, "unit": "µM"}, {"measurement": "GI50", "setting": "MDA-MB-468 breast", "result": 3.42, "unit": "µM"}, {"measurement": "TGI", "setting": "MDA-MB-468 breast", "result": 10.2, "unit": "µM"}, {"measurement": "GI50", "setting": "HCC-2998 colon", "result": 1.9, "unit": "µM"}, {"measurement": "TGI", "setting": "HCC-2998 colon", "result": 4.02, "unit": "µM"}, {"measurement": "GI50", "setting": "SW-620 colon", "result": 14.3, "unit": "µM"}, {"measurement": "TGI", "setting": "SW-620 colon", "result": 27.4, "unit": "µM"}, {"measurement": "GI50", "setting": "SNB-19 CNS", "result": 15.8, "unit": "µM"}, {"measurement": "TGI", "setting": "SNB-19 CNS", "result": 29.3, "unit": "µM"}, {"measurement": "GI50", "setting": "HOP-92 NSCLC", "result": 6.4, "unit": "µM"}, {"measurement": "TGI", "setting": "HOP-92 NSCLC", "result": 19.7, "unit": "µM"}, {"measurement": "GI50", "setting": "NCI-H460 NSCLC", "result": 6.02, "unit": "µM"}, {"measurement": "TGI", "setting": "NCI-H460 NSCLC", "result": 17.2, "unit": "µM"}, {"measurement": "GI50", "setting": "EKVX NSCLC", "result": 6.36, "unit": "µM"}, {"measurement": "TGI", "setting": "EKVX NSCLC", "result": 19.3, "unit": "µM"}, {"measurement": "GI50", "setting": "MCF7 breast", "result": 7.02, "unit": "µM"}, {"measurement": "TGI", "setting": "MCF7 breast", "result": 20.3, "unit": "µM"}, {"measurement": "GI50", "setting": "COLO 205 colon", "result": 4.64, "unit": "µM"}, {"measurement": "TGI", "setting": "COLO 205 colon", "result": 11.9, "unit": "µM"}, {"measurement": "GI50", "setting": "RPMI-8226 leukemia", "result": 0.0942, "unit": "µM"}, {"measurement": "TGI", "setting": "RPMI-8226 leukemia", "result": 0.674, "unit": "µM"}, {"measurement": "GI50", "setting": "NCI/ADR-RES ovarian", "result": 16.7, "unit": "µM"}, {"measurement": "TGI", "setting": "NCI/ADR-RES ovarian", "result": 30.6, "unit": "µM"}, {"measurement": "GI50", "setting": "MDA-MB-231 breast", "result": 13.3, "unit": "µM"}, {"measurement": "TGI", "setting": "MDA-MB-231 breast", "result": 26.1, "unit": "µM"}, {"measurement": "GI50", "setting": "SF-295 CNS", "result": 16.9, "unit": "µM"}, {"measurement": "TGI", "setting": "SF-295 CNS", "result": 30.6, "unit": "µM"}, {"measurement": "GI50", "setting": "A498 renal", "result": 4.81, "unit": "µM"}, {"measurement": "TGI", "setting": "A498 renal", "result": 18.1, "unit": "µM"}, {"measurement": "GI50", "setting": "M14 melanoma", "result": 3.43, "unit": "µM"}, {"measurement": "TGI", "setting": "M14 melanoma", "result": 7.63, "unit": "µM"}, {"measurement": "GI50", "setting": "SNB-75 CNS", "result": 7.54, "unit": "µM"}, {"measurement": "TGI", "setting": "SNB-75 CNS", "result": 21.2, "unit": "µM"}, {"measurement": "GI50", "setting": "PC-3 prostate", "result": 4.76, "unit": "µM"}, {"measurement": "TGI", "setting": "PC-3 prostate", "result": 17.3, "unit": "µM"}, {"measurement": "GI50", "setting": "HOP-62 NSCLC", "result": 12.8, "unit": "µM"}, {"measurement": "TGI", "setting": "HOP-62 NSCLC", "result": 25.5, "unit": "µM"}, {"measurement": "GI50", "setting": "CAKI-1 renal", "result": 3.78, "unit": "µM"}]}]}
